Measurements: patent EP4389751A1, “HETEROCYCLIC COMPOUNDS AND USES THEREOF” (Kumquat Biosciences Inc., priority 2021, dated 2024)

What was measured:
K-Ras G12S = target: T1, K-Ras G12S (Homo sapiens, UniProt P01116, G12S); experiment: HTRF assay of the K-Ras / SOS1 interaction; type: biochemical; conditions: IC50 (against K-Ras G12D) to IC50 (against K-Ras G12S)
T1 construct: made in house; host or cells: E. coli (e.g., BL21 (DE3))
Summary of the method: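 GST-K-Ras G12S with anti-GST-Eu donor and His-hSOS1 with anti-6His-XL665 acceptor in ~5 mM HEPES pH 7.4, ~150 mM NaCl, 1 mM DTT, 0.05% BSA, 0.0025% Igepal. Read after ~10 min or longer; IC50 from 665/620 nm ratio, duplicates at 10 µM down to 0.01 µM.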

[1] = target: T2, KRAS protein (His-tagged GDP-loaded G12S 1-169) (Homo sapiens, UniProt P01116, G12S); experiment: Covalent modification of KRAS protein, intact-protein LC-MS; type: binding; conditions: 24hrs at room temperature, KRAS protein ~2 µM
T2 construct: His-tagged GDP-loaded G12S 1-169
Description: Test compounds are prepared as 10 mM stock solutions in DMSO (Fisher cat#BP231-100). KRAS protein (His-tagged GDP-loaded wildtype 1-169, His-tagged GDP-loaded G12S 1-169 or His-tagged GDP-loaded G12D 1-169) is diluted to ~2 µM in appropriate buffer (e.g., a Hepes buffer at physiological conditions). For testing KRAS modification, compounds are diluted to 50X final test concentration in DMSO in 96-well storage plates. 2 µl of the diluted 50X compounds are added to appropriate wells in the PCR plate (Fisher cat#AB-0800). […] of the stock protein solution is added to each well of the 96-well PCR plate. Reactions are mixed carefully. The plate is sealed well with aluminum plate seal, and stored in drawer at room temperature for 24hrs. 5 µl of 2% formic acid (Fisher cat#A1 17-50) in MilliQ H2O is then added to each well followed by mixing with a pipette. The plate is then resealed with aluminum seal and stored until mass spectrometry analysis.
The extent of covalent modification of KRAS proteins was determined by liquid chromatography electrospray mass spectrometry analysis of the intact proteins on a Thermo Q-Exactive Plus mass spectrometer. 20 µl of sample was injected onto a bioZen 3.6 µm Intact C4 column (Phenomenex cat#00B-4767-AN) placed in a column oven set to 40°C and separated using a suitable LC gradient from -20% to ~60% solvent B. Solvent A was 0.1% formic acid and solvent B was 0.1% formic acid in acetonitrile. HESI source settings were set to 40, 5 and 1 for the sheath, auxiliary and sweep gas flow, respectively. The spray voltage was 4 kV, and the capillary temperature was 320°C. S-lens RF level was 50 and auxiliary gas heater temperature was set to 200°C. The mass spectrometry was acquired using a scan range from 650 to 1750 m/z using positive polarity at a mass resolution of 70,000, AGC target of 1e6 ions and maximum injection time of 250ms. The recorded protein mass spectrum was deconvoluted from the raw data file using Protein Deconvolution v4.0 (Thermo). The protein mass and adduct masses were exported with their peak intensities. The peak intensities for the unmodified and modified protein were used to calculate the percent covalent modification of the KRAS protein based on the following equation: %KRAS protein modification = ((KRAS-compound) / (KRAS) + (KRAS-Compound)) *100.

GP2D cells = experiment: Cell proliferation assay (CellTiter-Glo), K-Ras G12D cells; type: cell-based; conditions: GP2D cells (K-Ras G12D); read-out: Inhibition of GP2D Cells (IC50)
Summary of the method: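 GP2D (K-Ras G12D) cells seeded in DMEM with 2 mM glutamine and 10% FBS, then dosed next day with a dilution series (e.g., 9-point 3-fold). Viability read by CellTiter-Glo luminescence after about 5 days. IC50 from four-parameter fit.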

Row | SMILES | Ratio of IC50 KRAS G12D vs. IC50 KRAS G12S (K-Ras G12S) | % G12S Modification at 24 hr. [1] | IC50 (GP2D cells) [µM]
1 | N#Cc1c(N)sc2c(F)ccc(-c3c(Cl)cc4c(N5CCCC6(CCN(C(=O)n7cncn7)C6)C5)nc(OC[C@@]56CCCN5C[C@H](F)C6)nc4c3F)c12 (stereo partly drawn) [Compound A269, 4-(4-(2-(1H-1,2,4-triazole-1-carbonyl)-2,7-diazaspiro[4.5]decan-7-yl)-6-chloro-8-fluoro-2-(((2R,7aS)-2-fluorotetrahydro-1H-pyrrolizin-7a(5H)-yl)methoxy)quinazolin-7-yl)-2-amino-7-fluorobenzo[b]thiophene-3-carbonitrile] | A (A: indicates that the ratio of IC50 against KrasG12D vs. IC50 against KrasG12S is 1-fold or greater) | ++ (++ indicates between about 1%- 20% labelling) | 1 to 10
2 | N#CC[C@H]1CN(c2nc(OC[C@@]34CCCN3C[C@H](F)C4)nc3c(F)c(-c4ccc(F)c5sc(N)nc45)c(Cl)cc23)CCN1C(=O)n1cncn1 [Compound A145, 2-((2S)-4-(7-(2-amino-7-fluorobenzo[d]thiazol-4-yl)-6-chloro-8-fluoro-2-(((2R,7aS)-2-fluorotetrahydro-1H-pyrrolizin-7a(5H)-yl)methoxy)quinazolin-4-yl)-1-(1H-1,2,4-triazole-1-carbonyl)piperazin-2-yl)acetonitrile] | A (A: indicates that the ratio of IC50 against KrasG12D vs. IC50 against KrasG12S is 1-fold or greater) | +++ (+++ indicates greater than 20% labelling) | 1 to 10
3 | N#Cc1nccn1C(=O)N1CCCN(c2nc(OC[C@@]34CCCN3C[C@H](F)C4)nc3c(F)c(-c4ccc(F)c5sc(N)nc45)c(Cl)cc23)CC1 [Compound A171, 1-(4-(7-(2-amino-7-fluorobenzo[d]thiazol-4-yl)-6-chloro-8-fluoro-2-(((2R,7aS)-2-fluorotetrahydro-1H-pyrrolizin-7a(5H)-yl)methoxy)quinazolin-4-yl)-1,4-diazepane-1-carbonyl)-1H-imidazole-2-carbonitrile] | A (A: indicates that the ratio of IC50 against KrasG12D vs. IC50 against KrasG12S is 1-fold or greater) | +++ (+++ indicates greater than 20% labelling) | 1 to 10
4 | N#Cc1c(N)sc2c(F)ccc(-c3c(Cl)cc4c(N5CC6(CN(C(=O)n7cncn7)CCO6)C5)nc(OC[C@@]56CCCN5C[C@H](F)C6)nc4c3F)c12 [Compound A140, 4-(4-(8-(1H-1,2,4-triazole-1-carbonyl)-5-oxa-2,8-diazaspiro[3.5]nonan-2-yl)-6-chloro-8-fluoro-2-(((2R,7aS)-2-fluorotetrahydro-1H-pyrrolizin-7a(5H)-yl)methoxy)quinazolin-7-yl)-2-amino-7-fluorobenzo[b]thiophene-3-carbonitrile] | A (A: indicates that the ratio of IC50 against KrasG12D vs. IC50 against KrasG12S is 1-fold or greater) | +++ (+++ indicates greater than 20% labelling) | 1 to 10
5 | N#Cc1c(N)sc2c(F)ccc(-c3c(Cl)cc4c(N5CCOC6(CN(C(=O)n7cncn7)C6)C5)nc(OC[C@@]56CCCN5C[C@H](F)C6)nc4c3F)c12 [Compound A132, 4-(4-(2-(1H-1,2,4-triazole-1-carbonyl)-5-oxa-2,8-diazaspiro[3.5]nonan-8-yl)-6-chloro-8-fluoro-2-(((2R,7aS)-2-fluorotetrahydro-1H-pyrrolizin-7a(5H)-yl)methoxy)quinazolin-7-yl)-2-amino-7-fluorobenzo[b]thiophene-3-carbonitrile] | A (A: indicates that the ratio of IC50 against KrasG12D vs. IC50 against KrasG12S is 1-fold or greater) | +++ (+++ indicates greater than 20% labelling) | 1 to 10
